Test results from EP4471048A1, “PEPTIDE INHIBITORS OF INTERLEUKIN-23 RECEPTOR” (Zealand Pharma A/S, priority 2023, dated 2024).
pIC50: −log10 of the molar value. *1 amine or outer side, *2 acyl side, *3 side chain or, on linkers, in order; H or OH if unused. Where a SMILES comes first, the peptide text is derived from it. Bridges are numbered along the chain shown (N, C = ends). [ ]: non-standard residue; d: D form. The star is where a group is joined. hAad = O=C([C@H](CCCCC(=O)[*:3])N[*:1])[*:2]; X14 = O=C(CC[C@H](N[*:2])C(=O)[*:3])[*:1]; NH(2-(3-pyridyl)ethyl) = c1cncc(CCN*)c1; 2Nal = N[C@@H](Cc1ccc2ccccc2c1)C(=O)O; AEF = NCCOc1ccc(C[C@H](N)C(=O)O)cc1; 3Pal = N[C@@H](Cc1cccnc1)C(=O)O; β3hE = N[C@@H](CCC(=O)O)CC(=O)O; αMeL = CC(C)C[C@](C)(N)C(=O)O; dDab = NCC[C@@H](N)C(=O)O; Dab = NCC[C@H](N)C(=O)O

Target: T1, human IL-23R (Homo sapiens, UniProt Q5VWK5)
T1 sequence (Q5VWK5 22-629): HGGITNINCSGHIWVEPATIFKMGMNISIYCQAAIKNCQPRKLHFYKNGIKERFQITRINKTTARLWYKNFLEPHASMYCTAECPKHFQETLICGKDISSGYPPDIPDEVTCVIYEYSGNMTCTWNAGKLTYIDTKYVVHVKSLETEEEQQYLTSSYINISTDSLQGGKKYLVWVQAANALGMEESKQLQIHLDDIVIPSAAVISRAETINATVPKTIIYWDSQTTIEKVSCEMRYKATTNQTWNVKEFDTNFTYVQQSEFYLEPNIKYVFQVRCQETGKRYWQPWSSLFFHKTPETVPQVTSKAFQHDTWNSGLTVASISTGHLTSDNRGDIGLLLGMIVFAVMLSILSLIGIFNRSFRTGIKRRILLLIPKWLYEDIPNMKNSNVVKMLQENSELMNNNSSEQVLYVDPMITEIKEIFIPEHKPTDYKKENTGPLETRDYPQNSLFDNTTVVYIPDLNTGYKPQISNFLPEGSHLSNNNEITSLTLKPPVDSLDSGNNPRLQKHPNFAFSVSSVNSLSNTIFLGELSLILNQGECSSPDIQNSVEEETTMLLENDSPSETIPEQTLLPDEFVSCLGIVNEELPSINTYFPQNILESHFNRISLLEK
Experiment: biochemical
Conditions: for Emax: read-out: % displacement (hIL-23R NIuc)
Excerpt: The compound binding affinity for IL-23R was estimated by the ability of compounds to displace a fluorophore-labelled reference compound from the human IL-23R. The assay principle relies on Bioluminescence Resonance Energy Transfer (BRET) between a fluorophore-labelled reference compound binding to the IL-23R part of a fusion protein consisting of the IL-23R fused to a Nanoluc luciferase enzyme (Nanoluc). The Nanoluc is placed in the N-terminus in close proximity to the binding domain of the ligand. Upon close proximity between the fluorophore of the fluorophore-labelled compound and the Nanoluc of the fusion protein, bioluminescence energy generated from conversion of a Nanoluc substrate, is transferred to the fluorophore resulting in an increase in BRET. In presence of an unlabelled compound, the unlabelled compound displaces the fluorophore-labelled peptide from its binding site resulting in a decrease in BRET. The concentration for which half of the fluorophore-labelled peptide is displaced by the unlabelled compound depends on the affinity of the compound for the IL-23R, and is termed the IC50 concentration.
The plasmid also contained a gene to confer resistance for the antibiotic hygromycin. A cell line stably expressing the Nluc-IL23R fusion protein was generated by transfection of HEK293 cells with the expression plasmid and selected with hygromycin for 3 weeks in Growth medium consisting of DMEM w/ Glutamax-I containing, 10% V/V FBS, 1% V/V P/S, 1 mM Sodium Pyruvate, and 1X NEAA, and 0.3 mg/mL hygromycin. The remaining cells were propagated and considered a stable expressing Nluc-IL23R fusion protein pool clone.
Cells expressing the Nluc-IL23R fusion protein were expanded in Growth medium and membranes prepared by homogenization of a cell pellet from 18 T175 flasks (4 °C in subsequent steps). The cell pellet was lysed Tris 10 mM, 7.5, 1 mM EDTA and protease inhibitors (Complete, Roche) and homogenized using a 15 mL glass-dounce by 50 strokes. The homogenate was spun at spin @1500 rpm for 10 min, the supernatant transferred to SV-34 tubes and spun at 40000g for 20 min at 4 °C to pellet the crude membranes. The supernatant was then removed, the pellet resuspended in 5 mL buffer containing 50 mM HEPES pH 7.4, 5 mM EGTA, and 5 mM MgCl2, and homogenized. Aliquots of the resuspended and homogenized membranes containing the Nluc-IL23R fusion protein were stored at -80 °C until use.
The plate was sealed with light impermeable plate seals, and incubated on an orbital shaker 400 rpm for 2 hours at room temperature. To determine the BRET ratio, the plate seal was removed and 25 µL of the Nanoluc substrate (Promega N1572) diluted 1:500 was added to each well and incubated for 1-2 minutes on an orbital shaker at 400 rpm. […] The BRET ratio was calculated as the fluorescence from the TAMRA/nanoluc bioluminescence.
Compound potency (IC50) and maximal displacement (% displacement) were estimated by computer-aided curve fitting using a 4-parameter logistic (4PL) non-linear model. […]
In this application, the inventors provide the data as IC50 values.

% displacement (hIL-23R NIuc)	pIC50	Emax	SMILES
–	9.21	100%	CC[C@H](C)[C@@H]1NC(=O)[C@@H]2CCCCNC(=O)CC[C@@H](C(=O)N[C@@H](CCN)C(=O)N[C@@H](Cc3cccnc3)C(=O)NC)NC(=O)[C@](C)(CC(C)C)NC(=O)[C@H](Cc3ccc4ccccc4c3)NC(=O)[C@H](Cc3ccc(OCc4ccccc4)cc3)NC(=O)[C@H](CCC(=O)N2)NC(=O)[C@H](CCC(N)=O)NC(=O)[C@H](Cc2c[nH]c3ccccc23)NC(=O)[C@H](C(C)C)NC1=O [Compound 34, K(1c)(6c)^†IVWQE(6c)[Y(Bn)][2-Nal][2-Me-Leu]E(1c)[Dab][3-(3-Pyridyl)-Ala]-[NHMe]]
–	6.26	–	COc1ccc(C[C@@H]2NC(=O)[C@@H]3CCC(=O)N[C@@H](CCCCNC(=O)CC[C@@H](C(=O)N[C@@H](CCCCNC(=O)Cc4ncc[nH]4)C(N)=O)NC(=O)[C@](C)(CC(C)C)NC(=O)[C@H](Cc4ccc5ccccc5c4)NC2=O)C(=O)N[C@@H]([C@@H](C)O)C(=O)N[C@@H](C(C)C)C(=O)N[C@@H](Cc2c[nH]c4ccccc24)C(=O)N[C@@H](CCC(N)=O)C(=O)N3)cc1 [Compound 58, K(1c)(6c)^†TVWQE(6c)[Y(Me)][2-Nal][2-Me-Leu]E(1c)[K(Imidazoleacetyl)]-[NH2]]
–	6.85	99%	CC[C@H](C)[C@@H]1NC(=O)[C@@H]2CCCCNC(=O)CC[C@@H](CC(=O)NCCc3cccnc3)NC(=O)[C@](C)(CC(C)C)NC(=O)[C@H](Cc3ccc4ccccc4c3)NC(=O)[C@H](Cc3ccc(OCCN)cc3)NC(=O)[C@H](CCC(=O)N2)NC(=O)[C@H](CCC(N)=O)NC(=O)[C@H](Cc2c[nH]c3ccccc23)NC(=O)[C@H](C(C)C)NC1=O [Compound 65, K(1c)(6c)^†IVWQE(6c)[Y(2-aminoethoxy)][2-Nal][2-Me-Leu][beta-hGlu](1c)-[NH-2-(pyridin-3-yl)ethyl]] (KIVWQE[AEF][2Nal][αMeL][β3hE]-{NH(2-(3-pyridyl)ethyl)}; lactam 1-10, N-6)
–	10.54	102%	CC(C)C[C@]1(C)NC(=O)[C@H](Cc2ccc3ccccc3c2)NC(=O)[C@H](Cc2ccc(OCCN)cc2)NC(=O)[C@@H]2CCC(=O)N[C@@H](CCCCCNC(=O)CC[C@@H](C(=O)N[C@@H](CCN)C(=O)N[C@@H](Cc3cccnc3)C(N)=O)NC1=O)C(=O)N[C@@H]([C@@H](C)O)C(=O)N[C@@H](C(C)C)C(=O)N[C@@H](Cc1c[nH]c3ccccc13)C(=O)N[C@@H](CCC(N)=O)C(=O)N2 [Compound 4, [hLys](1c)(6c)^†TVWQE(6c)[Y(2-aminoethoxy)][2-Nal][2-Me-Leu]E(1c)[Dab][3-(3-Pyridyl)-Ala]-[NH2]]
–	9.12	102%	CCCCc1ccc(C[C@@H]2NC(=O)[C@@H]3CCC(=O)N[C@@H](CCCCNC(=O)CC[C@@H](C(=O)N[C@@H](CCN)C(=O)N[C@@H](Cc4cccnc4)C(=O)NC)NC(=O)[C@](C)(CC(C)C)NC(=O)[C@H](Cc4ccc5ccccc5c4)NC2=O)C(=O)N[C@@H]([C@@H](C)CC)C(=O)N[C@@H](C(C)C)C(=O)N[C@@H](Cc2c[nH]c4ccccc24)C(=O)N[C@@H](CCC(N)=O)C(=O)N3)cc1 [Compound 33, K(1c)(6c)^†IVWQE(6c)[F(4-Bu)][2-Nal][2-Me-Leu]E(1c)[Dab][3-(3-Pyridyl)-Ala]-[NHMe]]

Second part, the compound before the results:

SMILES	% displacement (hIL-23R NIuc)	pIC50	Emax
CC[C@H](C)[C@@H]1NC(=O)[C@@H]2CCCCNC(=O)CC[C@@H](C(=O)NCC(=O)N[C@H](Cc3cccnc3)C(N)=O)NC(=O)[C@](C)(C(C)C)NC(=O)[C@H](Cc3ccc4ccccc4c3)NC(=O)[C@](C)(Cc3ccccc3)NC(=O)[C@H](CCC(=O)N2)NC(=O)[C@H](CCC(N)=O)NC(=O)[C@H](Cc2c[nH]c3ccccc23)NC(=O)[C@H](C(C)C)NC1=O [Compound 21, K(1c)(6c)^†IVWQE(6c)[2-Me-Phe][2-Nal][2-Me-Val]E(1c)G[{d}3-(3-Pyridyl)-Ala]-[NH2]]	101%	6.00	–
CNC(=O)[C@H](Cc1cccnc1)NC(=O)[C@H](CCN)NC(=O)[C@@H]1CCC(=O)NC[C@@H]2NC(=O)CC[C@H](NC(=O)[C@H](CCC(N)=O)NC(=O)[C@H](Cc3c[nH]c4ccccc34)NC2=O)C(=O)N[C@@H](Cc2ccc(OCCN)cc2)C(=O)N[C@@H](Cc2ccc3ccccc3c2)C(=O)N[C@@](C)(CC(C)C)C(=O)N1 [Compound 95, [Dpr](1c)(6c)^†WQE(6c)[Y(2-aminoethoxy)][2-Nal][2-Me-Leu]E(1c)[Dab][3-(3-Pyridyl)-Ala]-[NHMe]]	–	7.77	98%
CNC(=O)[C@H](Cc1cccnc1)NC(=O)[C@H](CCN)NC(=O)[C@@H]1CCCCNC(=O)[C@@H]2CCC(=O)N[C@@H](Cc3c[nH]c4ccccc34)C(=O)N[C@@H](CCC(N)=O)C(=O)N[C@@H](CCC(=O)N2)C(=O)N[C@@H](Cc2ccc(OCCN)cc2)C(=O)N[C@@H](Cc2ccc3ccccc3c2)C(=O)N[C@@](C)(CC(C)C)C(=O)N1 [Compound 106, [iso-Glu](1c)^‡(6c)^†WQE(6c)[Y(2-aminoethoxy)][2-Nal][2-Me-Leu]K(1c)[Dab][3-(3-Pyridyl)-Ala]-[NHMe]] (WQE[AEF][2Nal][αMeL]K[Dab][3Pal]-NHMe; linker N-3-7 via X14)	99%	8.60	–
CNC(=O)[C@H](Cc1cccnc1)NC(=O)[C@H](CCN)NC(=O)[C@@H]1CCC(=O)NCCCC[C@@H]2NC(=O)CC[C@H](NC(=O)[C@H](CCC(N)=O)NC(=O)[C@H](Cc3c[nH]c4ccccc34)NC(=O)C[C@H]([C@@H](C)O)NC2=O)C(=O)N[C@@H](Cc2ccc(OCCN)cc2)C(=O)N[C@@H](Cc2ccc3ccccc3c2)C(=O)N[C@@](C)(CC(C)C)C(=O)N1 [Compound 97, K(1c)(6c)^†[beta-hThr]WQE(6c)[Y(2-aminoethoxy)][2-Nal][2-Me-Leu]E(1c)[Dab][3-(3-Pyridyl)-Ala]-[NHMe]]	101%	10.21	–
CNC(=O)[C@H](Cc1cccnc1)NC(=O)[C@H](CCN)NC(=O)[C@@H]1CCC(=O)NCCCC[C@H]2CC(=O)N[C@@H](Cc3c[nH]c4ccccc34)C(=O)N[C@@H](CCC(N)=O)C(=O)N[C@@H](CCC(=O)N2)C(=O)N[C@@H](Cc2ccc(OCCN)cc2)C(=O)N[C@@H](Cc2ccc3ccccc3c2)C(=O)N[C@@](C)(CC(C)C)C(=O)N1 [Compound 101, [beta-hLys](1c)(6c)^†WQE(6c)[Y(2-aminoethoxy)][2-Nal][2-Me-Leu]E(1c)[Dab][3-(3-Pyridyl)-Ala]-[NHMe]]	–	7.52	103%
CC(C)C[C@]1(C)NC(=O)[C@H](Cc2ccc3ccccc3c2)NC(=O)[C@H](Cc2ccc(OCCN)cc2)NC(=O)[C@@H]2CC(=O)N[C@H](CCNC(=O)CCCC[C@@H](C(=O)N[C@@H](CCN)C(=O)N[C@@H](Cc3cccnc3)C(N)=O)NC1=O)C(=O)N[C@@H]([C@@H](C)O)C(=O)N[C@@H](Cc1c[nH]c3ccccc13)C(=O)N[C@@H](CCC(N)=O)C(=O)N2 [Compound 15, [{d}Dab](1c)(6c)^†TWQD(6c)[Y(2-aminoethoxy)][2-Nal][2-Me-Leu][2-Amino-6-carboxyhexanoyl](1 c)[Dab][3-(3-Pyridyl)-Ala]-[NH2]] ([dDab]TWQD[AEF][2Nal][αMeL][hAad][Dab][3Pal]-NH2; lactam 1-9, N-5)	–	–	105%
